Assay results taken from the kinase profiling compilation of Christmann-Franck et al. (2016).

Tests used:
[1] = target: AURKB (human) (UniProt Q96GD4); test: SelectScreen, TR FRET
[2] = target: PLK1 (human) (UniProt P53350); test: SelectScreen, TR FRET
[3] = target: AURKA (human) (UniProt O14965); test: SelectScreen, TR FRET
[4] = target: LRRK2 (human) (UniProt Q5S007); test: SelectScreen, TR FRET
[5] = target: CHEK2 (human) (UniProt O96017); test: SelectScreen, TR FRET
[6] = target: DCLK2 (human) (UniProt Q8N568); test: SelectScreen, TR FRET
[7] = target: MYLK (human) (UniProt Q15746); test: SelectScreen, TR FRET
[8] = target: MKNK2 (human) (UniProt Q9HBH9); test: SelectScreen, TR FRET
[9] = target: NUAK1 (human) (UniProt O60285); test: SelectScreen, TR FRET
[10] = target: TBK1 (human) (UniProt Q9UHD2); test: KINOMEscan competition binding; settings: compound 10.0 µM
[11] = target: PLK3 (human) (UniProt Q9H4B4); test: KINOMEscan competition binding; settings: compound 10.0 µM
[12] = tested on: MET (human), P08581 [Y1235D]; test: KINOMEscan competition binding; settings: compound 10.0 µM
[13] = target: PIK3C2G (human) (UniProt O75747); test: KINOMEscan competition binding; settings: compound 10.0 µM
[14] = target: DYRK1A (human) (UniProt Q13627); test: KINOMEscan competition binding; settings: compound 10.0 µM
[15] = target: BTK (human) (UniProt Q06187); test: KINOMEscan competition binding; settings: compound 10.0 µM
[16] = target: GRK7 (human) (UniProt Q8WTQ7); test: KINOMEscan competition binding; settings: compound 10.0 µM
[17] = target: DAPK3 (human) (UniProt O43293); test: KINOMEscan competition binding; settings: compound 10.0 µM
[18] = target: FGFR2 (human) (UniProt P21802); test: KINOMEscan competition binding; settings: compound 10.0 µM
[19] = target: AURKA (human) (UniProt O14965); test: KINOMEscan competition binding
[20] = target: PRKACB (human) (UniProt P22694); test: KINOMEscan competition binding; settings: compound 10.0 µM
[21] = target: STK11 (human) (UniProt Q15831); test: KINOMEscan competition binding; settings: compound 10.0 µM
[22] = target: YSK4 (human) (UniProt Q56UN5); test: KINOMEscan competition binding; settings: compound 10.0 µM
[23] = target: MTOR (human) (UniProt P42345); test: KINOMEscan competition binding; settings: compound 10.0 µM
[24] = target: MAP2K6 (human) (UniProt P52564); test: KINOMEscan competition binding; settings: compound 10.0 µM
[25] = target: ROCK2 (human) (UniProt O75116); test: KINOMEscan competition binding; settings: compound 10.0 µM
[26] = target: CDK5 (human) (UniProt Q00535); test: KINOMEscan competition binding; settings: compound 10.0 µM
[27] = target: BMP2K (human) (UniProt Q9NSY1); test: KINOMEscan competition binding; settings: compound 10.0 µM
[28] = target: CDKL2 (human) (UniProt Q92772); test: KINOMEscan competition binding; settings: compound 10.0 µM
[29] = target: CLK3 (human) (UniProt P49761); test: KINOMEscan competition binding; settings: compound 10.0 µM
[30] = target: IGF1R (human) (UniProt P08069); test: KINOMEscan competition binding; settings: compound 10.0 µM
[31] = target: LIMK2 (human) (UniProt P53671); test: KINOMEscan competition binding; settings: compound 10.0 µM
[32] = target: AURKC (human) (UniProt Q9UQB9); test: KINOMEscan competition binding; settings: compound 10.0 µM
[33] = tested on: FLT3 (human), P36888 [D835H]; test: KINOMEscan competition binding; settings: compound 10.0 µM
[34] = tested on: RET (human), P07949 [V804L]; test: KINOMEscan competition binding; settings: compound 10.0 µM
[35] = target: RIOK1 (human) (UniProt Q9BRS2); test: KINOMEscan competition binding; settings: compound 10.0 µM
[36] = tested on: PRKAA1 or PRKAA2 (rat); test: radiometric filter-binding kinase assay; settings: accession and sequence are those of the human protein
[37] = target: DYRK1A (human) (UniProt Q13627); test: radiometric filter-binding kinase assay
[38] = tested on: LCK (mouse); test: radiometric filter-binding kinase assay; settings: accession and sequence are those of the human protein
[39] = target: AURKB (human) (UniProt Q96GD4); test: radiometric filter-binding kinase assay
[40] = target: CLK2 (human) (UniProt P49760); test: radiometric filter-binding kinase assay
Chain of CLK2 (human) (P49760 whole entry, looked up): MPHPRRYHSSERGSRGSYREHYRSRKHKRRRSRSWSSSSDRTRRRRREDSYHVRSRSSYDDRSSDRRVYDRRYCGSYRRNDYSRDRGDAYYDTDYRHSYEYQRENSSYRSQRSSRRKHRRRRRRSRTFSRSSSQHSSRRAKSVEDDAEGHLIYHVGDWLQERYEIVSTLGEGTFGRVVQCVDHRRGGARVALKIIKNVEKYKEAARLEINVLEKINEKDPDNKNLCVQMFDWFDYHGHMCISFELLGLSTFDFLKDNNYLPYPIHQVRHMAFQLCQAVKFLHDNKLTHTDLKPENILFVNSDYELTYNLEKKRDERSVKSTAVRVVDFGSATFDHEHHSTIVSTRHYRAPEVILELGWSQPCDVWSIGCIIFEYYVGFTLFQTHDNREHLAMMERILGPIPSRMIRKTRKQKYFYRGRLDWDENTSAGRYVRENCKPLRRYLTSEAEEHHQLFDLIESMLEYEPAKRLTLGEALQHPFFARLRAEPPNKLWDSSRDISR

Chain of AURKA (human) (O14965 whole entry, looked up): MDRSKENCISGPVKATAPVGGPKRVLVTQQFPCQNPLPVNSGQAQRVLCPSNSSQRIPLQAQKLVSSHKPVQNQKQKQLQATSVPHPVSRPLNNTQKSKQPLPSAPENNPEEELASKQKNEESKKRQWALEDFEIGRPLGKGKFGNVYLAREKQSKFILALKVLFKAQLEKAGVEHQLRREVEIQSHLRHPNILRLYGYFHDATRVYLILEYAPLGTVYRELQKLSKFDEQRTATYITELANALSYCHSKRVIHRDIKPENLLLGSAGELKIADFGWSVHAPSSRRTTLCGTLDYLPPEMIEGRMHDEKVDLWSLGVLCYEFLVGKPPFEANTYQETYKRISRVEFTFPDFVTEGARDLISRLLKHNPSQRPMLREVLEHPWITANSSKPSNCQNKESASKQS
Chain of AURKB (human) (Q96GD4 whole entry, looked up): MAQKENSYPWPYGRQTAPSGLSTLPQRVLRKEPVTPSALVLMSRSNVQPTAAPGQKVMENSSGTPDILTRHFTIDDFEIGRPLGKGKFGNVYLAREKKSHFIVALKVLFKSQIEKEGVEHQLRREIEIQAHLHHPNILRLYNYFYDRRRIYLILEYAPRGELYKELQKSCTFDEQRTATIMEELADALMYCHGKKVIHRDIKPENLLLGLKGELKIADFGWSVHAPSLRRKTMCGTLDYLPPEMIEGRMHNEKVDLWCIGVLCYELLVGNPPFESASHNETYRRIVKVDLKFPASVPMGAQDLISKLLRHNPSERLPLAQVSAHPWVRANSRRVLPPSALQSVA
Chain of MKNK2 (human) (Q9HBH9 whole entry, looked up): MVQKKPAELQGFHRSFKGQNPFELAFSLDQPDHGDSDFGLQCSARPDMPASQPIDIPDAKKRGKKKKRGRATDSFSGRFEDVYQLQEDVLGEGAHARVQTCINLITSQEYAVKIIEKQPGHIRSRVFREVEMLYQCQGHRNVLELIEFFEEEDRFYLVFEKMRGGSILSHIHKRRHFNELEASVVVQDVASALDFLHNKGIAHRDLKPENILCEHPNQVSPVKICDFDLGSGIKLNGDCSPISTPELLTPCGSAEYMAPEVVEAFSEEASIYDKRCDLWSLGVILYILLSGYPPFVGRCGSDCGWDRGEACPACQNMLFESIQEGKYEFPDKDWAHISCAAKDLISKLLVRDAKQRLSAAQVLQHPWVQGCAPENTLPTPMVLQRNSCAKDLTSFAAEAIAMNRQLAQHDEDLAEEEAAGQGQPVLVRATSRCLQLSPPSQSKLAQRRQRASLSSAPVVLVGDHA
Chain of DAPK3 (human) (O43293 whole entry, looked up): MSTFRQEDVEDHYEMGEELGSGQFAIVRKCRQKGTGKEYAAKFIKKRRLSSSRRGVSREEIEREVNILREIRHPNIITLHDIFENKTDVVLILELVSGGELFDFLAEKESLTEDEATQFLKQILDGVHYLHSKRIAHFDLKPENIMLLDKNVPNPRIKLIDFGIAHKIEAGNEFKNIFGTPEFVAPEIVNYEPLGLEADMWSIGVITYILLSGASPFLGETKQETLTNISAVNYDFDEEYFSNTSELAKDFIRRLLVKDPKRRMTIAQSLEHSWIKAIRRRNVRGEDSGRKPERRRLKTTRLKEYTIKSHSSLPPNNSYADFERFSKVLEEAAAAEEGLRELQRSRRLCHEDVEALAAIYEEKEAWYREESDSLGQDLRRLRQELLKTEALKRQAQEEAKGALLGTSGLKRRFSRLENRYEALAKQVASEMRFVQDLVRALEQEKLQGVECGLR
Chain of BTK (human) (Q06187 whole entry, looked up): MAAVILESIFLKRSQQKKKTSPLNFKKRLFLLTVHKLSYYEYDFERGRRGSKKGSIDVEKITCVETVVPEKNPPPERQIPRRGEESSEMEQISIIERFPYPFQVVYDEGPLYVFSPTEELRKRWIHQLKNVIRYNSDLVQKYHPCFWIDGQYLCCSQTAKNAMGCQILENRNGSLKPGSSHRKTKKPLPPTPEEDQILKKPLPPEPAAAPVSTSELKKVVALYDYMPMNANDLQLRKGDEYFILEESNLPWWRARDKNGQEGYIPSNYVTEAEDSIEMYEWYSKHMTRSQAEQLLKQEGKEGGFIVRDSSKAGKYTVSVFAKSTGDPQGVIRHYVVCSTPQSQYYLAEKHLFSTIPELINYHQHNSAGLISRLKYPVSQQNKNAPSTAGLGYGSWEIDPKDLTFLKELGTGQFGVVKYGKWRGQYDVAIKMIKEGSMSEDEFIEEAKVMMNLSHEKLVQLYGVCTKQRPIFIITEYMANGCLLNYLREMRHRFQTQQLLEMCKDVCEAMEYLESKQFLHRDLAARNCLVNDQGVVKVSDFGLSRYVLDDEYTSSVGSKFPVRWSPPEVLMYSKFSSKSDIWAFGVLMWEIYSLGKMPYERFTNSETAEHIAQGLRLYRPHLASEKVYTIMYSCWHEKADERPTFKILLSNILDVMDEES
Chain of CHEK2 (human) (O96017 whole entry, looked up): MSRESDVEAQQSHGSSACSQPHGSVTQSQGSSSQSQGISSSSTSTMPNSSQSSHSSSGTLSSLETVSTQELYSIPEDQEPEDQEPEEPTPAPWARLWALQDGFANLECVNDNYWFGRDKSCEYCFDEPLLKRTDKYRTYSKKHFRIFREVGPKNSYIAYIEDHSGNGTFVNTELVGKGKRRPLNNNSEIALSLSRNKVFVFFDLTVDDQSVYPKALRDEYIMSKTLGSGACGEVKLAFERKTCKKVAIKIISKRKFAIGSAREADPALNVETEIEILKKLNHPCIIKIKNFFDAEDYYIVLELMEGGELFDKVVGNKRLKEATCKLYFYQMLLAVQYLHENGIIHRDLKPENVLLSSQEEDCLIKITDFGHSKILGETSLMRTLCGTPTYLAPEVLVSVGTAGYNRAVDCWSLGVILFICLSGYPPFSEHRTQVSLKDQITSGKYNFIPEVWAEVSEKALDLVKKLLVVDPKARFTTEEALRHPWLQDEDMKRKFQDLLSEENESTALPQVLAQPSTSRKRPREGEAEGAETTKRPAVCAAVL
Chain of RET (human), P07949 [V804L] (P07949 whole entry V804L, looked up): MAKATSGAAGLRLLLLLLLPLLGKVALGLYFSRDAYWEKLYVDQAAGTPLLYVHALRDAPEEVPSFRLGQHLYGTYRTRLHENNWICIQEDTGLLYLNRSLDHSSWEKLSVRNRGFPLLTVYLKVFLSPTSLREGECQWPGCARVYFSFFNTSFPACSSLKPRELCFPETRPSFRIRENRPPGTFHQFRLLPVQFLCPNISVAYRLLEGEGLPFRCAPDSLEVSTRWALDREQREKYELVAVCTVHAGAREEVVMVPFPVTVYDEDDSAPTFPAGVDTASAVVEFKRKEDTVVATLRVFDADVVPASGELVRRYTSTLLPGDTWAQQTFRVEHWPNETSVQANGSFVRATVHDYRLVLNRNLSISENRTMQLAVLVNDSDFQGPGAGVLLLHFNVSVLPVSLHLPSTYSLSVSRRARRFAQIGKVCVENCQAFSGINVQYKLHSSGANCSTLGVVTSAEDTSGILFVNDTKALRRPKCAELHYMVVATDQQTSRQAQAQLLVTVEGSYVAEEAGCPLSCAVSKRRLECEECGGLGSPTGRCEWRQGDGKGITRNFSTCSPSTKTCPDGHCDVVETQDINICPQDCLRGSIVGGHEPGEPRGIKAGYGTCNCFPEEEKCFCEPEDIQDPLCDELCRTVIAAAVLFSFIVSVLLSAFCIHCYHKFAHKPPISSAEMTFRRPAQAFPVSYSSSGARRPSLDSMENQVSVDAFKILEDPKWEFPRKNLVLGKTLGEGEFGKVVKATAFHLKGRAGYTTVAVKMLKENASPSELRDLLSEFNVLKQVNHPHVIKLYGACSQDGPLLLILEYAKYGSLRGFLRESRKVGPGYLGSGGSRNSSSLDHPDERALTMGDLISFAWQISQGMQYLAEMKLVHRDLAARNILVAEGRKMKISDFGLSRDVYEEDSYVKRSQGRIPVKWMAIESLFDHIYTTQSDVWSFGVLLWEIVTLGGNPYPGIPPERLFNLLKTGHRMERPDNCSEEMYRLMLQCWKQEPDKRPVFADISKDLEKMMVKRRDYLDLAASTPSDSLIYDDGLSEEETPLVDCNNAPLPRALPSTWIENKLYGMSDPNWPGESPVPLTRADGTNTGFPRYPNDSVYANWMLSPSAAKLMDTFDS
Chain of AURKC (human) (Q9UQB9 whole entry, looked up): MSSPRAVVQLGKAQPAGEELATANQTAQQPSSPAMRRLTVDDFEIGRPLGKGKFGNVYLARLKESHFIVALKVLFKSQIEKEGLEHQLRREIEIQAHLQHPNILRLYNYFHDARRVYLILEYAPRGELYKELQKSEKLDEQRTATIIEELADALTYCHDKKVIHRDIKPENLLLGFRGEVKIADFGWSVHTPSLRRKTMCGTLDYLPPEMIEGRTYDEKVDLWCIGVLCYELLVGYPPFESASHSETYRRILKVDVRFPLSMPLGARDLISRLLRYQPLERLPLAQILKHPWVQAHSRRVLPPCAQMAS

COc1cc(C(=O)N2CCC(N3CCN(C)CC3)CC2)ccc1Nc1ncc2c(n1)N(C)c1ccccc1C(=O)N2C
IC50 [1]: 5.92 µM
IC50 [2]: 983 µM
IC50 [3]: 0.87 µM
IC50 [4]: 0.003 µM
IC50 [5]: 6.51 µM
IC50 [6]: 45 µM
IC50 [7]: 8.21 µM
IC50 [8]: 4.47 µM
IC50 [9]: 3.67 µM
kinase still bound, per cent of control [10]: 97%
kinase still bound, per cent of control [11]: 51%
kinase still bound, per cent of control [12]: 100%
kinase still bound, per cent of control [13]: 100%
kinase still bound, per cent of control [14]: 99%
kinase still bound, per cent of control [15]: 100%
kinase still bound, per cent of control [16]: 100%
kinase still bound, per cent of control [17]: 67%
kinase still bound, per cent of control [18]: 95%
Kd [19]: 1.6 µM
kinase still bound, per cent of control ([19]; compound 10.0 µM): 1.2%
residual activity [20]: 100%
kinase still bound, per cent of control [21]: 96%
kinase still bound, per cent of control [22]: 99%
kinase still bound, per cent of control [23]: 97%
kinase still bound, per cent of control [24]: 83%
kinase still bound, per cent of control [25]: 87%
residual activity [26]: 81%
kinase still bound, per cent of control [27]: 100%
residual activity [28]: 100%
kinase still bound, per cent of control [29]: 95%
residual activity [30]: 96%
kinase still bound, per cent of control [31]: 100%
kinase still bound, per cent of control [32]: 50%
kinase still bound, per cent of control [33]: 100%
kinase still bound, per cent of control [34]: 89%
kinase still bound, per cent of control [35]: 100%
residual activity ([36]; compound 1.0 µM): 70%
residual activity ([36]; compound 10.0 µM): 46%
residual activity ([37]; compound 1.0 µM): 87%
residual activity ([37]; compound 10.0 µM): 95%
residual activity ([38]; compound 1.0 µM): 106%
residual activity ([38]; compound 10.0 µM): 99%
IC50 [39]: 1.1 µM
residual activity ([39]; compound 1.0 µM): 64%
residual activity ([39]; compound 10.0 µM): 28%
residual activity ([40]; compound 1.0 µM): 76%
residual activity ([40]; compound 10.0 µM): 69%
